Test results taken from US20160083400A1, “TRICYCLIC GUANIDINE DERIVATIVE” (Sunovion Pharmaceuticals Inc., priority 2014, published 2016).

Molecular target: PDE1B (Homo sapiens, UniProt Q01064)
Assay: In vitro HTRF PDE1 inhibition assay (PDE1B)
Type: biochemical
Conditions: 100 nM cyclic GMP, calmodulin, 45 minutes at 37° C.

PDE1B, sequence (Q01064 whole entry): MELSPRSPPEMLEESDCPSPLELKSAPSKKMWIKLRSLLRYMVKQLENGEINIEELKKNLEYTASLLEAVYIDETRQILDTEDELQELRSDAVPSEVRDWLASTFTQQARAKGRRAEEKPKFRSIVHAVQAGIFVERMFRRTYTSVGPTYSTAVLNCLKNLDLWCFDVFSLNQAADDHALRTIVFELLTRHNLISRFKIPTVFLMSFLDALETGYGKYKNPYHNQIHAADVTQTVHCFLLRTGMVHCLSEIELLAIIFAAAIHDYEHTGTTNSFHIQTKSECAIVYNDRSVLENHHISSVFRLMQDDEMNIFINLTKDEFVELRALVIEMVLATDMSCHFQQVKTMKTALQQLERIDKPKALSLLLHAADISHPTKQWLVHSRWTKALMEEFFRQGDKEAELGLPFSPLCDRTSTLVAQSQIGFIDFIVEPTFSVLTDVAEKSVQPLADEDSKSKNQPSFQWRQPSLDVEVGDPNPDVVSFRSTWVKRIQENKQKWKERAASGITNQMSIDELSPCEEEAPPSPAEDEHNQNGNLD

IC50 [µM] | SMILES
1 to 10 | CC(C)n1ncc2c(=O)n3c(nc21)N[C@H](c1ccc(Cl)cc1)CC3 [Example 28]
< 1 | CC(C)n1ncc2c(=O)n3c(nc21)NC(c1cccc(Cl)c1)CC3 (centres unmarked) [Example 30]
< 1 | O=c1c2cnn(C3CCOCC3)c2nc2n1CCC(c1ccc(Cl)cc1)N2 (centres unmarked) [Example 43]
< 1 | CC(C)n1ncc2c(=O)n3c(nc21)NC(c1ccccc1)CC3 (centres unmarked) [Example 32]
< 1 | O=C1c2cnc([C@H]3CCOC3)n2NC2=N[C@@H](c3ccc(Cl)cc3)CN12 [Example 186, (2S)-2-(4-Chlorophenyl)-8-[(3R)-tetrahydro-3-furanyl]-2,10-dihydro-3H,5H-diimidazo[2,1-c:5′,1′-f][1,2,4]triazin-5-one]
1 to 10 | CC(C)c1ncc2c(=O)n3c(nn12)N[C@H](c1ccc(Cl)cc1)CC3 [Example 49]
< 1 | O=c1c2cnc(C3CCOCC3)n2nc2n1CC[C@H](c1ccc(Cl)cc1C(F)(F)F)N2 [Example 122]
1 to 10 | O=c1c2noc(C3CCOCC3)c2nc2n1CC[C@H](c1ccc(Cl)cc1)N2 [Example 155]
1 to 10 | CC(=O)c1ncc2c(=O)n3c(nn12)N[C@@H](c1ccc(Cl)cc1)CC3 [Example 252, (2R)-9-Acetyl-2-(4-chlorophenyl)-1,2,3,4-tetrahydro-6H-imidazo[5,1-f]pyrimido[2,1-c][1,2,4]triazin-6-one]
< 1 | O=c1c2cnc(C3CCCC3)n2nc2n1CCC(c1ccc(Cl)cc1)N2 (centres unmarked) [Example 60]
< 1 | N#Cc1ccc(C2CCn3c(nn4c(C5CCC5)ncc4c3=O)N2)cc1 (centres unmarked) [Example 95]
< 1 | CC(C)Cc1ncc2c(=O)n3c(nn12)N[C@@H](c1ccc(Cl)cc1)CC3 [Example 166]
< 1 | CC(C)c1ncc2c(=O)n3c(nn12)NC(C1CCCCC1)CC3 (centres unmarked) [Example 53]
< 1 | O=c1c2cnc(CC3CC3)n2nc2n1CC[C@H](c1ccc(Cl)cc1)N2 [Example 247]
1 to 10 | Cc1ccc(CC2CCn3c(nc4c(cnn4C4CCCC4)c3=O)N2)cn1 (centres unmarked) [Example 42]
< 1 | COc1ccc([C@@H]2Cn3c(nn4c(C5CCOCC5)ncc4c3=O)N2)cc1 [Example 140]
1 to 10 | Cc1ncc(C2CCn3c(nc4c(cnn4C(C)C)c3=O)N2)cn1 (centres unmarked) [Example 25]
10 to 100 | O=c1c2noc(C3CCCC3)c2nc2n1CC[C@H](c1ccc(Cl)cc1)N2 [Example 153]
< 1 | O=c1c2cnn(C3CCCC3)c2nc2n1CC[C@H](c1ccc(Cl)cc1)N2 [Example 40]
1 to 10 | O=c1c2cnn(C3CCCC3)c2nc2n1CC[C@@H](c1ccc(Cl)cc1)N2 [Example 41]
< 1 | O=c1c2cnn(C3CCC3)c2nc2n1CCC(c1ccc(Cl)cc1)N2 (centres unmarked) [Example 44]
1 to 10 | C[C@H](O)c1ncc2c(=O)n3c(nn12)N[C@@H](c1ccc(Cl)cc1)CC3 [Example 249]
< 1 | N#Cc1ccc(C2CCn3c(nn4c(C5CCOCC5)ncc4c3=O)N2)cc1 (centres unmarked) [Example 93]
< 1 | CC(C)c1ncc2c(=O)n3c(nn12)NC(c1ccc(Cl)cn1)CC3 (centres unmarked) [Example 51]

IC50 [µM] | SMILES
< 1 | O=c1c2cnc(C3CCCC3)n2nc2n1CC[C@@H](c1cncc(Cl)c1)N2 [Example 134]
< 1 | N#Cc1cccc(C2CCn3c(nn4c(C5CCOCC5)ncc4c3=O)N2)c1 (centres unmarked) [Example 94]
< 1 | CCn1ncc2c(=O)n3c(nc21)NC(c1ccc(Cl)cc1)CC3 (centres unmarked) [Example 34]
< 1 | O=c1c2cnn(C3CCOCC3)c2nc2n1CC(c1ccc(Cl)cc1)N2 (centres unmarked) [Example 75]
< 1 | COc1ccc([C@@H]2CN3C(=O)c4cnc(C5(C(F)(F)F)CC5)n4NC3=N2)cc1 [Example 255, (2R)-2-(4-Methoxyphenyl)-8-[1-(trifluoromethyl)cyclopropyl]-2,10-dihydro-3H,5H-diimidazo[2,1-c:5′,1′-f][1,2,4]triazin-5-one]
< 1 | CC(C)n1ncc2c(=O)n3c(nc21)NCCC3 [Example 254, 1-Isopropyl-6,7,8,10-tetrahydropyrazolo[3,4-d]pyrimido[1,2-a]pyrimidin-4(1H)-one]
< 1 | COc1cccc(C2CCn3c(nn4c(C(C)C)ncc4c3=O)N2)c1 (centres unmarked) [Example 47]
< 1 | N#Cc1ccc(C2Cn3c(nc4c(cnn4C4CCOCC4)c3=O)N2)cc1 (centres unmarked) [Example 86, 4-[4-Oxo-1-(tetrahydro-2H-pyran-4-yl)-4,6,7,8-tetrahydro-1H-imidazo[1,2-a]pyrazolo[3,4-d]pyrimidin-7-yl]benzonitrile]
< 1 | CC(C)c1ncc2n1NC1=N[C@@H](c3ccc(Cl)cc3)CN1C2=O [Example 137, (2S)-2-(4-Chlorophenyl)-8-isopropyl-2,10-dihydro-3H,5H-diimidazo[2,1-c:5′,1′-f][1,2,4]triazin-5-one]
< 1 | C[C@@H](O)c1ncc2c(=O)n3c(nn12)N[C@@H](c1ccc(Cl)cc1)CC3 [Example 250]
10 to 100 | N#Cc1ccc(C2CCn3c(nc4c(C5CCOCC5)onc4c3=O)N2)cc1 (centres unmarked) [Example 156]
1 to 10 | CO[C@H]1CC[C@@H](c2ncc3c(=O)n4c(nn32)N[C@@H](c2ccc(Cl)cc2)CC4)CC1 [Example 236]
< 1 | O=c1c2cnn(C3CCOCC3)c2nc2n1C[C@H](c1ccc(Cl)cc1)N2 [Example 148]
< 1 | Cc1cccc([C@H]2CCn3c(nn4c(C5CCOCC5)ncc4c3=O)N2)c1 [Example 264, (2R)-2-(3-Methylphenyl)-9-(tetrahydro-2H-pyran-4-yl)-1,2,3,4-tetrahydro-6H-imidazo[5,1-f]pyrimido[2,1-c][1,2,4]triazin-6-one]
1 to 10 | Cc1ccc(CC2CCn3c(nc4c(cnn4C(C)C)c3=O)N2)cn1 (centres unmarked) [Example 33]
10 to 100 | O=c1c2noc(C3CCOCC3)c2nc2n1CCC(c1cccc(Cl)c1)N2 (centres unmarked) [Example 159]
1 to 10 | O=c1c2cnc(C3CCOCC3)n2nc2n1CCC1(CCc3ccccc31)N2 (centres unmarked) [Example 177, 9-(Tetrahydro-2H-pyran-4-yl)-2′,3,3′,4-tetrahydro-1H,6H-spiro[imidazo[5,1-f]pyrimido[2,1-c][1,2,4]triazine-2,1′-inden]-6-one]
1 to 10 | O=c1c2cnc(C3CCOCC3)n2nc2n1CC[C@@H](c1ccc(Cl)cc1C(F)(F)F)N2 [Example 123]
< 1 | O=c1c2cnn(CC(F)(F)F)c2nc2n1CCC(c1ccc(Cl)cc1)N2 (centres unmarked) [Example 38]
< 1 | CC(C)n1ncc2c(=O)n3c(nc21)NC(c1ccc(C#N)cc1)C3 (centres unmarked) [compound 87]
< 1 | O=c1c2cnc(C3CCOCC3)n2nc2n1CCC(Cc1ccc(Cl)cc1)N2 (centres unmarked) [Example 59]
< 1 | O=c1c2cnc(C3CCOCC3)n2nc2n1CCC(c1cccc(Cl)c1)N2 (centres unmarked) [Example 56]
< 1 | COCc1ncc2c(=O)n3c(nn12)N[C@@H](c1ccc(Cl)cc1)CC3 [Example 244]
< 1 | O=c1c2cnc(C3CCC3)n2nc2n1CCC(c1ccc(Cl)cc1)N2 (centres unmarked) [Example 63]

IC50 [µM] | SMILES
< 1 | O=c1c2cnc(C3CCC3)n2nc2n1CCC(Cc1ccc(Cl)cc1)N2 (centres unmarked) [Example 66]
1 to 10 | O=c1c2cnc(CO)n2nc2n1CC[C@H](c1ccc(Cl)cc1)N2 [Example 237]
< 1 | O=c1c2cnc(C3CC3)n2nc2n1CCC(c1ccc(Cl)cc1)N2 (centres unmarked) [Example 67]
< 1 | COc1ccc([C@H]2CN3C(=O)c4cnc(C5(C(F)(F)F)CC5)n4NC3=N2)cc1 [Example 256, (2S)-2-(4-Methoxyphenyl)-8-[1-(trifluoromethyl)cyclopropyl]-2,10-dihydro-3H,5H-diimidazo[2,1-c:5′,1′-f][1,2,4]triazin-5-one]
1 to 10 | Cc1cnc(CC2CCn3c(nc4c(cnn4C(C)C)c3=O)N2)nc1 (centres unmarked) [Example 73]
< 1 | CC(C)n1ncc2c(=O)n3c(nc21)NC(c1ccc(C#N)cc1)CC3 (centres unmarked) [compound 88]
< 1 | O=c1c2cnn(CC3CC3)c2nc2n1CCC(c1ccc(Cl)cc1)N2 (centres unmarked) [Example 37]
< 1 | O=c1c2cnc(C3CCOCC3)n2nc2n1CC[C@H](c1cccc(Cl)c1)N2 [Example 127]
< 1 | COc1cccc([C@H]2CCn3c(nn4c(C5CCOCC5)ncc4c3=O)N2)c1 [Example 128]
< 1 | CC1(c2ncc3c(=O)n4c(nn23)N[C@@H](c2ccc(Cl)cc2)CC4)CCCC1 [Example 245]
< 1 | O=c1c2cnc(C3CCCC3)n2nc2n1CC[C@H](c1cncc(Cl)c1)N2 [Example 135]
1 to 10 | CC(C)c1onc2c(=O)n3c(nc12)NC(c1ccc(C#N)cc1)CC3 (centres unmarked) [Example 157]
< 1 | O=c1c2cnn(C3CCOCC3)c2nc2n1CC(c1ccc(F)cc1)N2 (centres unmarked) [Example 76]
1 to 10 | N#Cc1ccc(C2CCn3c(nc4c(C5CCCC5)onc4c3=O)N2)cc1 (centres unmarked) [Example 154]
< 1 | O=c1c2cnc(C3CCOCC3)n2nc2n1CC[C@@H](c1cccc(Cl)c1)N2 [Example 126]
1 to 10 | O=c1c2cnn(C3CCC(F)(F)CC3)c2nc2n1CCC(c1ccc(Cl)cc1)N2 (centres unmarked) [Example 39]
< 1 | Cc1ccc([C@@H]2CN3C(=O)c4cnc(C(C)C)n4NC3=N2)cc1 [Example 97, (2R)-8-Isopropyl-2-(4-methylphenyl)-2,10-dihydro-3H,5H-diimidazo[2,1-c:5′,1′-f][1,2,4]triazin-5-one]
< 1 | CCCc1ncc2c(=O)n3c(nn12)N[C@@H](c1ccc(Cl)cc1)CC3 [Example 167]
1 to 10 | CC(C)c1onc2c(=O)n3c(nc12)NC(c1cccc(Cl)c1)CC3 (centres unmarked) [Example 158]
< 1 | O=c1c2cnc(C3CC=CCC3)n2nc2n1CC[C@H](c1ccc(Cl)cc1)N2 (some centres unmarked) [Example 243]
1 to 10 | O=c1c2cnn(C3CCOCC3)c2nc2n1C[C@@H](c1ccc(Cl)cc1)N2 [Example 147]
< 1 | COc1ccc(CC2CCn3c(nc4c(cnn4C(C)C)c3=O)N2)cc1 (centres unmarked) [Example 13]
< 1 | Cc1cncc([C@@H]2CCn3c(nn4c(C5CCCC5)ncc4c3=O)N2)c1 [Example 133]
< 1 | COC(C)(C)c1ncc2c(=O)n3c(nn12)N[C@@H](c1ccc(Cl)cc1)CC3 [Example 240]

SMILES | IC50 [µM]
Cc1ccc(C2CCn3c(nc4c(cnn4C(C)C)c3=O)N2)cn1 (centres unmarked) [Example 12] | 1 to 10
O=c1c2cnc(C3CCOCC3)n2nc2n1CC(c1ccc(Cl)nc1)N2 (centres unmarked) [Example 183] | < 1
